molecular target: T1, mGluR2 receptor (metabotropic glutamate receptor 2) (Homo sapiens, UniProt Q14416); assay: mGluR2 Potentiator Screen, FLIPR, EC10-EC20 glutamate challenge; assay type: cell-based; settings: mGluR2 potentiator screen, Table 7; read-out: EC50
T1 construct: expressed in transfected cells
Method: Procedure for mGluR2 Potentiator Screen NLB Methods EC10-EC20 Challenge Cell Culture and Plating:
Cells used for this screen are HEK cells stably transfected with the mGluR2 receptor (metabotropic glutamate receptor 2) and the Gα15 G protein. Clones were identified by functional activity (FLIPR). Cells are grown in growth media containing: DMEM High Glucose with Glutamine and Na Pyruvate (GIBCO), 10% (v/v) Heat inactivate FBS (GIBCO) G418 500 ug/ml (from 50 mg/ml stock) (GIBCO) and Blasticidin 3 ug/ml (from 5 mg/ml stock made in H2O) (Invitrogen).
2 days before the assay cell are trypsinized with 0.25% trysin/EDTA (GIBCO), spun down at 1000 rpm for 5 minutes, resuspended in growth media and plated on polystyrene 384 well black wall/clear bottom poly-D-lysine coated plates at a density of approximately 18,000 cells/well in a volume of 50 μL per well. One day before the assay the growth media is removed from the plates by flicking and replaced with media containing DMEM High Glucose without Glutamine and Na Pyruvate (GIBCO) and 10% (v/v) dialyzed FBS (GIBCO). The reason for the removal of glutamine the day before the assay is to minimize the amount of glutamate that will be present during the assay, as endogenous glutarnate released from the cells can reduce the fluorescent response and interfere with the FLIPR screen.
FLIPR Methods and Data Analysis:
On the day of the assay, the FLIPR assay is performed using the following methods:
The pH is adjusted to 7.4 with 1M NaOH. Prepare a 2 mM (approx.) stock solution of Fluo-4.am (Molecular Probes) dye in DMSO −22 μl DMSO per 50 ug vial (440 μL per 1 mg vial). Make a 1 mM (approx.) flou-4, PA working solution per vial by adding 22 μl of 20% pluronic acid (PA) (Molecular Probes) in DMSO to each 50 ug vial (440 μL per 1 mg vial). Prepare a 250 mM Probenecid (Sigma) stock solution by dissolving 0.71 g into 5 ml 1N NaOH and 5 ml assay buffer (for each liter of assay wash buffer). Make 4 uM (approx.) dye incubation media by adding 2.50 ug vials per 11 ml DMEM high glucose without glutamine (220 ml per 1 mg vial). Add 110 μL probenecid stock per 11 ml (2.5 mM final [concentration]). To the dye media add 3 units/ml of glutamic-pyruvic transaminase (GPT, Sigma) and 3 mM Na Pyruvate. The assay has worked with dye concentrations from 2 uM to 8 uM dye as well. To the assay buffer from drug preparation, add 1.83 mls DMSO and 400 μL. 15.8% P104 (from New Leads biology) per liter for final concentrations of 0.18% DMSO and 0.006% P104. To the assay buffer for cell washing, add probenecid in the same manner and concentration that was used for the dye media.
Remove growth media from cell plates by flicking. Add 50 μl/well dye solution. Incubate 1 hour at 37° C. and 5% CO2. Remove dye solution and wash 3 times with assay buffer+probenecid (100 μl probenecid stock per 10 ml buffer), leaving 30 μL/well assay buffer. Wait at least 10-15 minutes. Compounds and agonist challenge additions are performed with the FLIPR. The in addition is for test compounds, which are added as 15 μL of 4× [concentration] of potentiator. The second 2nd addition is 15 μL of 4× [concentration] of agonist or challenge. This achieves 1× concentration of all compounds only after 2nd addition. The 1st and 2nd additions are performed separately using the FLIPR, which give 2 different data files. Compounds are pretreated at least 30 minutes before agonist addition.
Results are analyzed by dividing the peak fluorescent value of the FLIPR response by the […] to achieve a ratio response. The ratios are then analyzed by curve fitting programs. Since potent compounds can give an inverted U dose response curve (due to effects on endogenous glutamate by the potentiators) points are deleted at concentrations higher than the concentration that gives the maximum effect. Maximum values for dose response curves (forced fitting) are derived from standards on the plate.
Compound Preparation and Glutamate Challenge: […]

T1 sequence (Q14416 19-872, species assumed): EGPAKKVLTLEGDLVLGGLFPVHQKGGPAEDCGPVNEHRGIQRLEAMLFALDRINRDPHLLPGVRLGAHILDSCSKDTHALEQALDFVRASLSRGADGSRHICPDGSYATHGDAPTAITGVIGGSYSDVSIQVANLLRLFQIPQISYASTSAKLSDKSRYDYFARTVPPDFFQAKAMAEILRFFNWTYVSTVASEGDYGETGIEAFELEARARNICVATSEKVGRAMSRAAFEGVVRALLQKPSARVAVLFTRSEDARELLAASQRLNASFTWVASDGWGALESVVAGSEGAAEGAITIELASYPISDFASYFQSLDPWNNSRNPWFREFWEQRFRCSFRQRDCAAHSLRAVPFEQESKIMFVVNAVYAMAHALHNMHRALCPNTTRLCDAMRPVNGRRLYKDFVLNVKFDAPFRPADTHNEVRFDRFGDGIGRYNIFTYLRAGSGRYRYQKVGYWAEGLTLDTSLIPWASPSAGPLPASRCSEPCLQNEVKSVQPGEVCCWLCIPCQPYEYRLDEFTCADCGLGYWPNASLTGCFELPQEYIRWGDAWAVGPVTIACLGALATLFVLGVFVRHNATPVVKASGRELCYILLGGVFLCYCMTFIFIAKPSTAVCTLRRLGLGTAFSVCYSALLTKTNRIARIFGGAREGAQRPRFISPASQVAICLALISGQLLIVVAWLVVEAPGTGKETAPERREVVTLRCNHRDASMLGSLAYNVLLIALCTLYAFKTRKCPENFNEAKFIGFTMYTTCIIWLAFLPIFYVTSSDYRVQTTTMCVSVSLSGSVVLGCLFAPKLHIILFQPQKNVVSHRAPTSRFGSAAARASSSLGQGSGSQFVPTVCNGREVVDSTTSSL

Row | Compound | EC50 [nM]
1 | CCCOc1ccc(Cl)cc1C1CCN(Cc2nc3ccccc3n2CF)CC1 [compound 221] | 413
2 | Cn1c(CN2CCC(c3ccccc3F)CC2)nc2c(Br)cccc21 [compound 157] | 836
3 | CC1CC1COc1ccc(Cl)cc1C1CCN(Cc2nc3ccccc3n2C)CC1 (stereo not drawn) [compound 199] | 390
4 | Cn1c(CN2CCC(c3cc(Cl)ccc3OCC3CCCCO3)CC2)nc2ccccc21 (stereo not drawn) [compound 216] | 534
5 | CC1(COc2ccc(Cl)cc2C2CCN(Cc3nc4ccccc4n3CF)CC2)COC1 [compound 211] | 8220
6 | FCCn1c(CN2CCC(c3cc(Cl)ccc3OCC3CCC3)CC2)nc2ccccc21 [compound 195] | 1390
7 | COCCn1c(CN2CCC(c3cc(Cl)ccc3OCCC3CC3)CC2)nc2ccccc21 [compound 191] | 136
8 | Clc1ccc(OCCC2CC2)c(C2CCN(Cc3nc4ccccc4n3C3CC3)CC2)c1 [compound 187] | 777
9 | CC1CC1COc1ccc(Cl)cc1C1CCN(Cc2nc3ccccc3n2C2CC2)CC1 (stereo not drawn) [compound 198] | 2250

same assay, conditions: read-out: EC50

Row | Compound | EC50 [nM]
10 | COc1ccccc1C1CCN(Cc2nc3cc(C)ccc3n2C)CC1 [compound 282] | 41.6
11 | COc1cc(C(F)(F)F)ccc1C1CCN(Cc2nc3cccc(F)c3n2C)CC1 [compound 406] | 117
12 | 2-((4-(2-Fluorophenyl)piperidin-1-yl)methyl)-3-methyl-3H-benzo[d]imidazole-5-carbonitrile [Entry 275] | 2620
13 | CN1CC2(CCN(Cc3nc4ccccc4n3C)CC2)c2cc(Br)ccc21 [Entry 104, 5-Bromo-1-methyl-1'-[(1-methyl-1H-benzimidazole-2-yl)methyl]-1,2-dihydrospiro[indole-3,4'-piperidine]] | 1410
14 | Cn1c(CN2CCC(c3ccc(C(F)(F)F)cc3)CC2)nc2cc(Cl)ccc21 [compound 345] | 1600
15 | COc1ccccc1C1CCN(Cc2nc3ccccc3n2C2CC2)CC1 [compound 244] | 484
16 | CCCN1CC2(CCN(Cc3nc4ccccc4n3C)CC2)c2cc(C)ccc21 [compound 144] | 2370
17 | COc1ccccc1[C@]1(C)CCN(Cc2nc3ccccc3n2C2CC2)C[C@@H]1C [compound 322] | 9930
18 | COc1cc(C(F)(F)F)ccc1C1CCN(Cc2nc3cc(C#N)ccc3n2C)CC1 [compound 390] | 52
19 | Cn1c(CN2CCC(c3ccccc3F)CC2)nc2c(C#N)cccc21 [compound 268] | 1710
20 | COc1ccc(C(F)(F)F)cc1C1CCN(Cc2nc3ccccc3n2C2CC2)CC1 [compound 318] | 4690
21 | CCN1CC2(CCN(Cc3nc4ccccc4n3C)CC2)c2cc(Cl)ccc21 [compound 105] | 3370
22 | COc1ccccc1C1CCN(Cc2nc3cc(Br)ccc3n2C)CC1 [compound 263] | 242
23 | Cn1c(CN2CCC(c3ccccc3F)CC2)nc2cc(Br)ccc21 [compound 269] | 445
24 | Cc1ccc2c(c1)C1(CCN(Cc3nc4ccccc4n3C)CC1)CN2 [compound 143] | > 8670
25 | CCCCC(=O)N1CC2(CCN(Cc3nc4ccccc4n3C)CC2)c2ccccc21 [compound 62] | 261
26 | Cn1c(CN2CCC3(CC2)CN(C(=O)c2ccco2)c2ccc(Cl)cc23)nc2ccccc21 [compound 46] | > 4860
27 | Cn1c(CN2CCC(c3ccc(F)cc3F)CC2)nc2ccccc21 [compound 422] | 14.6
28 | Cn1c(CN2CCCC(c3ccccc3F)CC2)nc2ccccc21 (stereo not drawn) [compound 306] | 1590
29 | C[C@@H]1CN(Cc2nc3ccccc3n2C)CC[C@@H]1c1ccc(F)c(F)c1 (racemic) [Entry 462, 2-{[Cis-4-(3,4-Difluoro-phenyl)-3-methyl-piperidin-1-yl]methyl}-1-methyl-1H-benzoimidazole] | 241
30 | CCN1CC2(CCN(Cc3nc4ccccc4n3C)CC2)c2cc(F)ccc21 [compound 114] | 2380
31 | COc1ccccc1[C@H]1CCN(Cc2nc3ccccc3n2CCF)C[C@H]1C (relative stereo) [compound 339] | 604
32 | CCC(C)CN1CC2(CCN(Cc3nc4ccccc4n3C)CC2)c2cc(C)cc(C)c21 (stereo not drawn) [compound 148] | 4730
33 | Cn1c(CN2CCC(c3ccccc3F)CC2)nc2ccc(-c3ccccc3)cc21 [Entry 276, 2-((4-(2-Fluorophenyl)piperidin-1-yl)methyl)-1-methyl-6-phenyl-1H-benzo[d]imidazole] | 204

Row | Compound | EC50 [nM]
34 | CCOc1ccc(Cl)cc1C1CCN(Cc2nc3ccccc3n2CCOC)CC1 [compound 228] | 185
35 | Cn1c(CN2CCC(c3ccccc3F)CC2)nc2cc(C(C)(C)O)ccc21 [Entry 298, 2-(2-((4-(2-fluorophenyl)piperidin-1-yl)methyl)-1-methyl-1H-benzo[d]imidazol-5-yl)propan-2-ol] | > 7340
36 | FCCn1c(CN2CCC(c3ccccc3F)CC2)nc2ccccc21 [compound 241] | 217
37 | Cn1c(CN2CCC(c3ccccc3F)CC2)nc2cc(-c3ccccc3)ccc21 [compound 280] | 176
38 | Cn1c(CN2CCC(c3cc(C(F)(F)F)ccc3F)CC2)nc2c(F)cccc21 [compound 401] | 161
39 | COc1cc(C(F)(F)F)ccc1[C@H]1CCN(Cc2nc3ccccc3n2C)C[C@H]1C (relative stereo) [compound 459] | 128
40 | COc1ccccc1C1CCN(Cc2nc3cc(F)ccc3n2C)CC1 [compound 284] | 39.4
41 | COc1ccc(C(F)(F)F)cc1C1CCN(Cc2nc3cc(C#N)ccc3n2C)CC1 [compound 388] | 583
42 | Cn1c(CN2CCC(c3cc(F)cc4c3OCCC4)CC2)nc2ccccc21 [compound 431] | 5340
43 | Cn1c(CN2CCC(c3cccc(C(F)(F)F)c3)CC2)nc2cc(F)ccc21 [compound 374] | 245
44 | COc1cccc(F)c1C1CCN(Cc2nc3ccccc3n2C)CC1 [compound 438] | 81
45 | CCOc1ccc(Cl)cc1C1CCN(Cc2nc3ccccc3n2C2CC2)CC1 [compound 225] | 999
46 | C[C@@H]1CN(Cc2nc3ccccc3n2C)CC[C@@H]1c1ccc(F)c(Cl)c1 (relative stereo) [compound 456] | 181
47 | Cn1c(CN2CCC(c3cc(C(F)(F)F)ccc3F)CC2)nc2cc(F)ccc21 [compound 375] | 348
48 | C[C@@H]1CN(Cc2ccc(C3CCN(Cc4nc5ccccc5n4C)CC3)cc2)C[C@H](C)O1 [compound 455] | 2590
49 | Cn1c(CN2CCC(F)(c3ccc(F)cc3)CC2)nc2cccc(F)c21 [compound 439] | 460
50 | Cn1c(CN2CCC(c3ccccc3C(F)(F)F)CC2)nc2cc(F)c(F)cc21 [compound 261] | 2310
51 | COc1cc(C(F)(F)F)ccc1C1CCN(Cc2nc3c(F)cccc3n2C)CC1 [compound 399] | < 12.4
52 | Cn1c(CN2CC[C@@H](c3ccc(F)cc3)[C@H](COc3ccc4c(c3)OCO4)C2)nc2ccccc21 [compound 410] | 5260
53 | COc1ccccc1C1CCN(Cc2nc3ccccc3n2C)CC1 [compound 47] | 77.1
54 | Cn1c(CN2CCC(c3cccc(C(F)(F)F)c3)CC2)nc2cc(C#N)ccc21 [compound 389] | 285
55 | C[C@@H]1CN(Cc2nc3ccccc3n2C)CC[C@@H]1c1ccc(F)c(F)c1 (single isomer, unassigned) [Entry 473, 2-{[Cis-4-(3,4-Difluoro-phenyl)-3-methyl-piperidin-1-yl]methyl}-1-methyl-1H-benzoimidazole] | 1030
56 | Cn1c(CN2CCC(c3ccc(F)cc3)CC2)nc2cccc(F)c21 [compound 342] | 55.2
57 | Cn1c(CN2CCC(c3cc(C(F)(F)F)ccc3F)CC2)nc2cc(C#N)ccc21 [compound 392] | 441

From patent US20080280933A1, “BENZIMIDAZOLYL COMPOUNDS” (priority 2006, published 2008)
